US20240002398A1, “COMPLEX, AND USE THEREOF” (RIKEN, priority 2020, published 2024)

Assays:
[1] = system: MCF10A; assay: ATP assay (cytotoxicity assay), DOX-ABC and DOX; conditions: 0.05-50 μM, 48 hours at 37° C., FIG. 16
Protocol: (§4) Three cell lines (MCF10A, A549, and HeLa S3) were seeded on a 96-well plate (2×10^4 cells/well) and left to attach for 24 hours at 37° C. Each of the cells was then used for two different conditions as follows:
(§5) (Condition 1) The cells were treated with 100 μL of DOX-ABC (compound 7) solutions [0.05 μM, 0.1 μM, 0.5 μM, 1 μM, 5 μM, 10 μM, 50 μM in the culture medium (1% DMSO)] and incubated for 48 hours at 37° C. under 5% of CO2.
(§6) (Condition 2) Incubation was carried out in a manner similar to that of condition 1 with use of doxorubicin (DOX) solutions.
(§7) After the incubation, 100 μL of ATP lite 1 step reagent was added to the cells, and the fluorescence intensity was measured using a spectrofluorometer (SpectraMax iD3, manufactured by Molecular Devices).

[2] = system: A549; assay: ATP assay (cytotoxicity assay), DOX-ABC and DOX; conditions: A549, 0.05-50 μM, 48 hours at 37° C., FIG. 16
Protocol: as §4, §5, §6, §7

[3] = system: HeLa S3; assay: ATP assay (cytotoxicity assay), DOX-ABC and DOX; conditions: HeLa S3, 0.05-50 μM, 48 hours at 37° C., FIG. 16
Protocol: as §4, §5, §6, §7

[4] = system: A549 xenograft tumors; assay: A549 tumor bearing mice xenograft model, intratumoral administration (Example 8); conditions: for tumor growth (tumor size): intratumoral 10 μL, 4 times on days 0, 4, 7 and 11, FIGS. 17 and 18; for survival rate: intratumoral, at and after the fourth administration, Kaplan Meier, FIG. 19
Protocol: The prepared mice were randomized, divided into three groups, and treated with the prodrugs and controls. Group 1 was intratumorally injected with 10 μL of compound 9 produced in Production Example 5 as a control (n=10). Group 2 was intratumorally injected with 10 μL of doxorubicin (n=10).
Administrations were conducted 4 times in total on days 0, 4, 7, and 11 with the same doses. The tumor volumes of the mice were recorded every day based on an equation: V=W^2×L/2, where W and L represented the minor length and major length of the tumor, respectively. When the tumor reached 2,000 mm^3, the mice were sacrificed, and the survival rates were calculated using the Kaplan Meier method.

[5] = system: A549 xenograft tumors; assay: A549 tumor bearing mice xenograft model, intratumoral administration (Example 9); format: in vivo; conditions: intratumoral 10 μL, 4 times on days 0, 4, 7 and 11; FIG. 20
[6] = Fluorescence spectra in water (0.2% DMSO); format: physicochemical; conditions: 2 μM in water (0.2% DMSO), FIG. 1
Description: The results are shown in FIG. 1 (dashed line: compound 7, solid line: control compound).

[7] = system: A549 (human lung adenocarcinoma cells); assay: Fluorescence release, cell-based assay, concentration-dependent; conditions: FIG. 4
Description: (§1) Fluorescence intensity was normalized for each cell line by the number of 10,000 cells.

[8] = system: HeLa S3 (human cervical cancer cells); assay: as above; conditions: FIG. 5
Description: as §1

[9] = system: MCF10A (normal human mammary cells); assay: as above; conditions: 2-20 μM, FIG. 3
Description: as §1

[10] = system: A549 (human lung adenocarcinoma cells); assay: Fluorescence release, cell-based assay, time-dependent; conditions: A549, 2 μM or 20 μM, real-time 30 minutes, FIGS. 6 and 7
Protocol: (§2) Fluorescence intensity was normalized for each cell line by the number of 10,000 cells. Results are shown in FIG. 6 (2 μM) and FIG. 7 (20 μM).

[11] = system: HeLa S3 (human cervical cancer cells); assay: as above; conditions: HeLa S3, 2 μM or 20 μM, real-time 30 minutes, FIGS. 6 and 7
Protocol: as §2

[12] = system: MCF10A (normal human mammary cells); assay: as above; conditions: 2 μM or 20 μM, real-time 30 minutes, FIGS. 6 and 7
Protocol: as §2

[13] = Fluorescence release, HPLC analysis of mixture with glutathione; format: physicochemical; conditions: 20 μM in DMSO, GSH 1.0 eq, FIG. 8
Protocol: (§3) To a solution of coumarin-ABC (compound 7) (2×10^−5 mmol, 1.0 eq) in DMSO (1 mL, [compound 7]=20 μM) was added glutathione (GSH) (2×10^−5 mmol, 1.0 eq) or acrolein (2×10^−5 mmol, 1.0 eq). The reaction liquid was stirred and the reaction mixture was subjected to HPLC analysis at different time intervals (30 minutes, 1 hour, 2 hours, 4 hours, and 12 hours). Conditions of reversed-phase HPLC were as follows: Column, Cosmosil 5C18-AR300 (manufactured by Nacalai Tesque, Inc.) 4.6×250 mm; Mobile phase A, 0.1% TFA in H2O; Mobile phase B, 0.1% TFA in CH3CN; Gradient elution, 0-4 min at 65% B, 4-14 min at 65-95% B, 14-20 min at 95% B; Flow rate at 1 mL/min; Fluorescence detection at 360/450 nm; Amount per injection 6 μL. Results are shown in FIG. 8 (GSH) and FIG. 9 (acrolein).

[14] = Fluorescence release, HPLC analysis of mixture with acrolein; format: physicochemical; conditions: 20 μM in DMSO, acrolein 1.0 eq, FIG. 9
Protocol: as §3

[15] = system: A549 xenograft tumors; assay: A549 tumor bearing mice xenograft model, intratumoral administration (Example 6); conditions: 12 times in consecutive days, mitomycin C 1.8 mg/kg, MMC-ABC 3.1 mg/kg, FIGS. 13 and 15
Protocol: For all intratumoral injections and tumor measurements, mice were anesthetized with 2% isoflurane in oxygen at a 2.5-3.0 L/min flow rate.
A549 cells were obtained from stock lines kept in liquid nitrogen. These cells were cultured in Dulbeccos's modified eagle's medium (DMEM) (manufactured by FUJIFILM Wako Pure Chemical Corporation) supplemented with 10% fetal bovine serum (FBS) (manufactured by BioWest) and 1% penicillin-streptomycin (manufactured by Gibco). The cells were then incubated at 37° C. in a 5% CO2 humidified atmosphere.
A549 xenograft tumors were established in 6-week-old female nude mice BALB/cAJc1-nu/nu by subcutaneous injection of a suspension of 2.5-6.0×10^6 cells in 100 μL of cold 50% matrigel in unnourished DMEM into the right and left shoulders, and tumor growth was monitored. The mice were kept in controlled temperature, salinity, and aeration room with sufficient food and water for 12 hours day and 12 hours night. […]
The administrations were repeated 12 times in consecutive days with the same doses. The tumor volume and body weight of the mice were recorded every day based on an equation: V=W^2×L/2, where W and L represented the minor length and major length of the tumor, respectively. When the tumor reached 2,000 mm^3, the mice were sacrificed, and the survival rates were calculated using the Kaplan Meier method. […]

COc1cccc2c1C(=O)c1c(O)c3c(c(O)c1C2=O)C[C@@](O)(C(=O)CO)C[C@@H]3O[C@H]1C[C@H](NC(=O)OCc2cc(C(C)C)c(N=[N+]=[N-])c(C(C)C)c2)[C@H](O)[C@H](C)O1 [DOX-ABC]
cytotoxicity (cell viability) [1]: released free DOX specifically in cancer cells | cytotoxicity (cell viability) [2]: released free DOX specifically in cancer cells | cytotoxicity (cell viability) [3]: released free DOX specifically in cancer cells | tumor growth (tumor size) [4]: effective with respect to the tumor growth | survival rate [4]: 100%

COc1ccc(CC(NC(=O)OCc2cc(C(C)C)c(N=[N+]=[N-])c(C(C)C)c2)C(=O)NC2C(O)[C@H](n3cnc4c(N(C)C)ncnc43)O[C@@H]2CO)cc1 (some centres unmarked) [PUR-ABC]
tumor growth [5]: effective with respect to the tumor growth

Cc1cc(C(C)C)c(N=[N+]=[N-])c(C(C)C)c1 [compound 9, 2-azido-1,3-diisopropyl-5-methylbenzene]
tumor growth (tumor size) [4]: larger tumor size

Cc1cc(=O)oc2cc(NC(=O)OCc3cc(C(C)C)c(N=[N+]=[N-])c(C(C)C)c3)ccc12 [coumarin-ABC]
fluorescence emission [6]: did not emit fluorescence | release of fluorescence ([7]; A549, 2-20 μM, 60 minutes at room temperature, no NAc-Cys (conditions 1 and 3)): notably observed | release of fluorescence ([7]; A549, pre-treated with 1 mM N-acetyl cysteine 2 hours (condition 2), 2-20 μM, 60 minutes): low | release of fluorescence ([8]; HeLa S3, 2-20 μM, 60 minutes at room temperature, no NAc-Cys (conditions 1 and 3)): notably observed | release of fluorescence ([8]; HeLa S3, pre-treated with 1 mM N-acetyl cysteine 2 hours (condition 2), 2-20 μM, 60 minutes): low | release of fluorescence ([9]; 60 minutes at room temperature, no NAc-Cys (conditions 1 and 3)): hardly observed | release of fluorescence ([9]; pre-treated with 1 mM N-acetyl cysteine 2 hours (condition 2), 60 minutes): hardly observed | release of fluorescence [10]: notably observed depending on the time | release of fluorescence [11]: notably observed depending on the time | release of fluorescence [12]: only slightly observed | reaction with glutathione (GSH) [13]: did not react with each other | state of the compound in the mixture with GSH ([13]; left for 12 hours): did not change | reaction with acrolein [14]: rapidly reacted with each other

COc1cccc2c1C(=O)c1c(O)c3c(c(O)c1C2=O)C[C@@](O)(C(=O)CO)C[C@@H]3O[C@H]1C[C@H](N)[C@H](O)[C@H](C)O1 [doxorubicin, reference compound]
cytotoxicity (cell viability) [1]: nonspecifically exhibited cytotoxicity toward normal cells and cancer cells | cytotoxicity (cell viability) [2]: nonspecifically exhibited cytotoxicity toward normal cells and cancer cells | cytotoxicity (cell viability) [3]: nonspecifically exhibited cytotoxicity toward normal cells and cancer cells | tumor growth (tumor size) [4]: effective with respect to the tumor growth | survival rate [4]: suddenly decreased

CO[C@@]12[C@H](COC(N)=O)C3=C(C(=O)C(C)=C(N)C3=O)N1C[C@@H]1N[C@@H]12 [mitomycin C]
side effect [15]: inflammation on the whole body
